Among the data in ChEMBL document CHEMBL3046108, “Comparison between antioxidant activity of 2,5-disubstituted 1,3,4-oxadiazoles containing heteroaromatic ring and aromatic ring at 2nd position” (Med Chem Res, 2011) are IC50 and inhibition values, retold here.

What all share (format): functional
In assay [1] the test system is Radical scavenging activity. Briefly: Antioxidant activity of the compound assessed as DPPH radical scavenging activity after 30 min.
For assay [2], the system named is Radical scavenging activity. The assay is described as follows: Antioxidant activity of the compound assessed as DPPH radical scavenging activity at 10 ug/ml after 30 min. For orientation: Loss of DPPH colour is used to gauge radical scavenging.
For assay [3], the system named is Radical scavenging activity. Briefly: Antioxidant activity of the compound assessed as DPPH radical scavenging activity at 6 ug/ml after 30 min.
For assay [4], the system named is Radical scavenging activity. Briefly: Antioxidant activity of the compound assessed as DPPH radical scavenging activity at 8 ug/ml after 30 min.
Assay [5] relates to Radical scavenging activity. The assay is described as follows: Antioxidant activity of the compound assessed as DPPH radical scavenging activity at 2 ug/ml after 30 min.
Assay [6] deals with Radical scavenging activity. Briefly: Antioxidant activity of the compound assessed as DPPH radical scavenging activity at 4 ug/ml after 30 min.

Converted amounts (≈) assume the structure as drawn.

Turning to `Nc1ccccc1-c1nnc(-c2ccccc2N)o1`, the IC50 (in general, the concentration that inhibits the measured activity by half) in assay [1] is 7.76 µg/mL (≈ 30.8 µM). The inhibition (in general, the share of the control response that was lost under treatment) in assay [2] was determined as 64%; in assay [3] it was 38.6%; in assay [4], 52.1%; in assay [5] it was 12.1%; in assay [6], 25.8%.

Take `Cc1cccc(-c2nnc(-c3ccccc3N)o2)c1O`: the IC50 in assay [1] came out at 6 µg/mL (≈ 22.4 µM). For the same molecule, the inhibition turned out to be 81.9% in assay [2]; 48.8% in assay [3]; 64.9% in assay [4]; 15.9% in assay [5]; 31.9% in assay [6].

Turning to `Nc1ccc(-c2nnc(-c3ccncc3)o2)cc1`, in assay [1], the IC50 was 12.08 µg/mL (≈ 50.7 µM). Moreover, the inhibition in assay [2] worked out at 41.4%; in assay [3], 24.8%; in assay [4] it was 33.1%; in assay [5] it was 8.27%; in assay [6], 16.5%.

On to `Nc1ccc(-c2nnc(-c3ccccc3N)o2)c(O)c1`, for which the IC50 in assay [1] was 20.05 µg/mL (≈ 74.7 µM). Further, the inhibition was determined as 24.9% in assay [2]; 14.9% in assay [3]; 19.9% in assay [4]; 4.98% in assay [5]; 9.97% in assay [6].

For `O=[N+]([O-])c1ccc(-c2nnc(-c3ccncc3)o2)cc1`, the IC50 in assay [1] was found to be 12.47 µg/mL (≈ 46.5 µM). For the same molecule, the inhibition in assay [2] is 39.8%; in assay [3], 23.2%; in assay [4], 31.5%; in assay [5], 6.66%; in assay [6], 14.9%.

As to `Clc1ccc(-c2nnc(-c3ccncc3)o2)cc1`, the IC50 in assay [1] stood at 9.01 µg/mL (≈ 35 µM). In addition, the inhibition was determined as 53.8% in assay [2]; 39% in assay [3]; 43.6% in assay [4]; 12.8% in assay [5]; 24.4% in assay [6].

With `Nc1ccccc1-c1nnc(-c2ccc(Cl)cc2)o1`, the IC50 in assay [1] came out at 8.26 µg/mL (≈ 30.4 µM). The inhibition was 59.5% in assay [2]; 36.2% in assay [3]; 50% in assay [4]; 12.3% in assay [5]; 23.5% in assay [6].

Regarding `O=C1O[C@H]([C@@H](O)CO)C(O)=C1O` [ASCORBIC ACID], the IC50 in assay [1] is 5.68 µg/mL (≈ 32.3 µM). Moreover, the inhibition is 87.3% in assay [2]; 53.2% in assay [3]; 69.3% in assay [4]; 18.2% in assay [5]; 35.3% in assay [6].

In the case of `O=[N+]([O-])c1cccc(-c2nnc(-c3ccncc3)o2)c1`, the IC50 in assay [1] stood at 6.99 µg/mL (≈ 26.1 µM). Besides, the inhibition in assay [2] came out at 71.2%; in assay [3], 42.5%; in assay [4] it was 57.7%; in assay [5], 15%; in assay [6] it was 28.7%.

Regarding `Nc1ccccc1-c1nnc(-c2cccc([N+](=O)[O-])c2)o1`, the IC50 in assay [1] amounted to 16.04 µg/mL (≈ 56.8 µM). Also, the inhibition in assay [2] stood at 30.8%; in assay [3] it was 19.7%; in assay [4] it was 25.2%; in assay [5], 5.51%; in assay [6], 14.2%.
